According to PMC12693701, “Glucosinolate-Derived Metabolites from Barbarea vulgaris (Brassicaceae): Evaluation of Antimicrobial, Antioxidant, and Anti-Inflammatory Potentials” (Molecules, 2025):
≈ marks a conversion by molar mass, not a printed value.

Columns and labels:
[1] = system: P. mirabilis; assay: Inhibition of biofilm formation (crystal violet); type: cell-based, Proteus mirabilis; details: for BIC50: biofilm coverage reduced by 50%; for BIC90: biofilm coverage reduced by 90%
Experimental: (§1) The procedure involved preparing 96-well microtiter plates (Sarstedt, Nümbrecht, Germany) by adding 100 μL of Mueller-Hinton nutrient broth to each well. A 10 μL aliquot of bacterial suspension (adjusted to 1.0 McFarland for Gram-positive bacteria and 0.5 McFarland for Gram-negative bacteria) was added to the wells. The plates were then incubated at 37 °C for 48 h to allow biofilm formation. After incubation, the wells were washed twice with 200 μL of sterile 0.85% saline to remove non-adherent and weakly adherent cells. Biofilms formed by the adherent bacteria were fixed with 100 μL of methanol until fully evaporated. The biofilms were then stained using 0.1% (w/v) crystal violet (Fluka Chemie AG, Buchs, Switzerland) and left at room temperature for 20 min. After staining, excess dye was washed off with deionized water, followed by 96% ethanol. Controls included wells containing only nutrient broth to check for sterility and nonspecific binding. Background absorbance from the sterile medium, fixative, and dye was subtracted from the OD readings of the test samples. All experiments were performed in triplicate.
(§2) To assess the inhibition of biofilm formation, 96-well microtiter plates (Sarstedt, Nümbrecht, Germany) were prepared by dispensing 100 μL of Mueller-Hinton broth into each well. From stock solutions of tested compounds (at 10 mg/mL), 100 μL was added to the first row of the plate, followed by twofold serial dilutions (from 5 to 0.039 mg/mL) using a multichannel pipette (Eppendorf AG, Hamburg, Germany). Subsequently, 10 μL of fresh bacterial suspension (adjusted to 0.5 McFarland for Gram-negative and 1.0 McFarland for Gram-positive bacteria) was added to each well. The plates were incubated at 37 °C for 48 h. After incubation, the contents of the wells were carefully removed by tapping, and the remainder of the experiment was conducted following the procedure described above.
(§3) Controls consisted of wells containing only broth or broth with the tested compounds to assess sterility and nonspecific binding. Background absorbance was subtracted from test readings as described earlier. All experiments were performed in triplicate, and tetracycline (Sigma-Aldrich, St. Louis, MO, USA), dissolved in nutrient broth, was used as a reference compound.

[2] = system: S. enterica; assay: Inhibition of biofilm formation (crystal violet); type: cell-based, Salmonella enterica; details: for BIC50: biofilm coverage reduced by 50%; for BIC90: biofilm coverage reduced by 90%
Experimental: as §1, §2, §3

[3] = system: K. pneumoniae; assay: Inhibition of biofilm formation (crystal violet); type: cell-based, Klebsiella pneumoniae; details: for BIC50: biofilm coverage reduced by 50%; for BIC90: biofilm coverage reduced by 90%
Experimental: as §1, §2, §3

[4] = system: S. aureus ATCC 25923; assay: Inhibition of biofilm formation (crystal violet); type: cell-based, Staphylococcus aureus; details: for BIC50: biofilm coverage reduced by 50%; for BIC90: biofilm coverage reduced by 90%
Experimental: as §1, §2, §3

[5] = system: B. subtilis ATCC 6633; assay: Inhibition of biofilm formation (crystal violet); type: cell-based, Bacillus subtilis; details: for BIC50: biofilm coverage reduced by 50%; for BIC90: biofilm coverage reduced by 90%
Experimental: as §1, §2, §3

[6] = system: tested bacterial strains; assay: Microdilution MIC, summary over tested bacterial strains; type: cell-based; details: for MIC: read-out: MIC against E. coli ATCC 25922 and S. aureus ATCC 25923 (abstract); for MIC values, range over bacterial strains: all tested bacteria
Experimental: The antimicrobial activity was evaluated against 15 microorganisms. This included 11 bacterial strains: four standard strains (Staphylococcus aureus ATCC 25923, Bacillus subtilis ATCC 6633, Bacillus pumilus NCTC 8241, and Escherichia coli ATCC 25922) and six clinical or environmental isolates (Staphylococcus aureus, Escherichia coli, Bacillus cereus, Proteus mirabilis, Salmonella enterica, and Klebsiella pneumoniae). One probiotic strain, Bifidobacterium animalis subsp. lactis was tested. In addition, four fungal strains, Candida albicans ATCC 10231, Trichoderma viride ATCC 13233, Aspergillus flavus ATCC 9170, and Fusarium solani ATCC 11712 were tested. The bacterial strains were kept in glycerol stock at −80 °C and the fungal strains in paraffin oil stock at 4 °C.
Bacterial and yeast suspensions were prepared using the direct colony method, as previously described by Andrews. The turbidity of the initial suspensions was adjusted to match the 0.5 McFarland standard using a densitometer (Biosan, Riga, Latvia), corresponding to approximately 10^8 colony-forming units (CFU)/mL for bacterial cells and 10^6 CFU/mL for yeast cells. Subsequently, 1:100 dilutions of the initial suspensions were prepared in sterile 0.85% saline. Fungal spore suspensions were obtained by gently harvesting spores from agar slopes containing mature mycelial growth. The collected spore suspensions were then diluted 1:1000 in sterile 0.85% saline prior to use.
Antimicrobial activity was evaluated by determining the minimum inhibitory concentration (MIC) and minimum microbicidal concentration (MMC) using the microdilution plate method with resazurin as an indicator [28]. In the 96-well plates, 100 μL of Mueller–Hinton broth (Torlak, Belgrade, Serbia) for bacterial testing and Sabouraud broth (Torlak, Belgrade, Serbia) for fungal testing were dispensed into each well. The compounds under investigation were initially dissolved in a 10% dimethyl sulfoxide (DMSO) solution, followed by dilution in sterile distilled water, resulting in a working compound solution containing 1% DMSO. A 100 μL aliquot of the stock solution of the tested compound was added to the first row, and twofold serial dilutions were then carried out using a multichannel pipette. The resulting concentration range was from 5 to 0.039 mg/mL. The inoculated microtiter plates were incubated at 37 °C for 24 h for bacteria, at 28 °C for 48 h for yeasts, and at 28 °C for 72 h for molds.
Each test also included growth control and sterility control. All tests were conducted in duplicate. MIC was defined as the lowest concentration of tested compounds that prevented resazurin color change from blue to pink. For molds, MIC values of the tested compound were determined as the lowest concentration that inhibited visible mycelia growth. MMC was determined by inoculation of the nutrient agar medium by plating […] of samples from wells, where no indicator color change was recorded. At the end of the incubation period, the lowest concentration with no growth (no colony) was defined as MMC.

SMILES | BIC50 [1] | BIC90 [1] | BIC50 [2] | BIC90 [2] | BIC50 [3] | BIC90 [3] | BIC50 [4] | BIC90 [4] | BIC50 [5] | BIC90 [5] | MIC [6] | MIC values, range over bacterial strains [6] | antibacterial activity (in words) ([6]; tested concentrations 5 to 0.039 mg/mL)
O=C1NCC(c2ccccc2)O1 (stereo not shown) [Compound 7, 5-Phenyl-1,3-oxazolidin-2-one] | 3100 µg/mL | 4754 µg/mL | 1254 µg/mL | >5000 µg/mL | 4400 µg/mL | >5000 µg/mL | >5000 µg/mL | >5000 µg/mL | >5000 µg/mL | >5000 µg/mL |  |  | 
CSC(=S)NCCc1ccc(O)cc1 [Compound 2, methyl-4-hydroxyphenylethyl dithiocarbamate] | 1158 µg/mL | 4500 µg/mL | 1100 µg/mL | 3200 µg/mL | 580 µg/mL | 3600 µg/mL | 220 µg/mL | 2120 µg/mL | 290 µg/mL | 1250 µg/mL | 312 to 1250 µg/mL (≈ 1.37 to 5.5 mM) |  | 
S=C1NCC(c2ccccc2)O1 (racemic) [Compound 4, rac-5-Phenyl-1,3-oxazolidine-2-thione] | 3170 µg/mL | >5000 µg/mL | 1000 µg/mL | 4470 µg/mL | 3978 µg/mL | >5000 µg/mL | 1500 µg/mL | >5000 µg/mL | 2700 µg/mL | >5000 µg/mL |  | 1250 to 5000 µg/mL | 
O=C(O)C1CSC(=S)N1 (stereo not shown) [Compound 3, 2-Thioxothiazolidine-4-carboxylic Acid] | 3420 µg/mL | >5000 µg/mL | 2400 µg/mL | >5000 µg/mL | 1262 µg/mL | >5000 µg/mL | 2500 µg/mL | >5000 µg/mL | 1190 µg/mL | 2500 µg/mL |  |  | 
O=C1NCC(c2ccccc2)S1 (stereo not shown) [Compound 6, 5-phenyl-1,3-thiazolidin-2-one] |  |  |  |  |  |  |  |  |  |  |  |  | no detectable antibacterial activity
Oc1ccc(CCN=C=S)cc1 [Compound 8, 2-(4-hydroxyphenyl)ethyl isothiocyanate] | 1428 µg/mL | 2400 µg/mL | 1547 µg/mL | >5000 µg/mL | 570 µg/mL | 2000 µg/mL | 868 µg/mL | 1360 µg/mL | 1100 µg/mL | 2300 µg/mL | 312 to 1250 µg/mL (≈ 1.74 to 6.97 mM) |  | 
CSC(=S)NCCc1ccccc1 [Compound 1, Methyl phenethylcarbamodithioate] |  |  |  |  |  |  |  |  |  |  |  | 1250 to 5000 µg/mL | 
